Assay results as given in BindingDB's records for doi:10.1021/jm990281p (Parke-Davis Pharmaceutical Research, 2000).

Experiments:
[1] = target: T1, Gag-Pol polyprotein [489-587] (Human immunodeficiency virus 1, UniProt P04585); assay: Protease Inhibition Assay
T1 construct: 489-587
Experimental: (§1) Sensitivity of HIV-1 protease activity to protease inhibitors was determined by a peptide substrate cleavage assay. Protease products were analyzed on a reverse-phase high-pressure liquid chromatograph.

[2] = target: T2, Dimer of Gag-Pol polyprotein [489-587] (Human immunodeficiency virus 1, UniProt P12497); assay: Protease Inhibition Assay
T2 construct: 489-587
Experimental: as §1

[3] = target: T1, Gag-Pol polyprotein [489-587]

Structure (SMILES) | IC50 [1] | IC50 ([2]; pH 6.2, 37 °C) | Ki ([2]; pH 6.2, 37 °C) | Ki [3] | Ki [2]
Cc1cc(SC2C(=O)CC(CCc3ccc(O)cc3)(C(C)C)OC2=O)c(C(C)(C)C)cc1N (configuration not stated) | 2.7 nM | 2.7 nM | 0.67 nM | 0.67 nM | –
Cc1cc(SC2C(=O)CC(CCc3ccc(O)cc3)(C(C)C)OC2=O)c(C(C)(C)C)cc1NS(=O)(=O)c1cccc(C#N)c1 (configuration not stated) | – | – | 0.21 nM | 0.21 nM | –
Cc1cc(SC2C(=O)CC(CCc3ccccc3)(C(C)C)OC2=O)c(C(C)(C)C)cc1NS(C)(=O)=O (configuration not stated) | – | – | 0.83 nM | 0.83 nM | –
Cc1cc(SC2C(=O)CC(CCc3ccccc3)(C(C)C)OC2=O)c(C(C)(C)C)cc1O (configuration not stated) | – | – | – | 1.1 nM | –
Cc1cc(SC2C(=O)CC(CCc3ccccc3)(C(C)C)OC2=O)c(C(C)(C)C)cc1OS(=O)(=O)c1ccc(C#N)cc1 (configuration not stated) | – | – | – | 0.7 nM | 0.7 nM
Cc1cc(SC2C(=O)C[C@@](CCc3ccc(O)cc3)(C(C)C)OC2=O)c(C(C)(C)C)cc1OS(C)(=O)=O (some centres not stated) | 2.2 nM | – | – | 0.03 nM | 0.03 nM
Cc1cc(SC2C(=O)C[C@@](CCc3ccc(O)cc3)(C(C)C)OC2=O)c(C(C)(C)C)cc1N (stereo partly drawn) [(6S)-3-[(4-amino-2-tert-butyl-5-methylphenyl)sulfanyl]-4-hydroxy-6-[2-(4-hydroxyphenyl)ethyl]-6-(propan-2-yl)-5,6-dihydro-2H-pyran-2-one] | – | – | – | 13 nM | 0.07 nM
Cc1cc(SC2C(=O)CC(CCc3ccccc3)(C(C)C)OC2=O)c(C(C)(C)C)cc1NS(=O)(=O)c1cccc(C#N)c1 (configuration not stated) [N-(5-tert-butyl-4-{[4-hydroxy-2-oxo-6-(2-phenylethyl)-6-(propan-2-yl)-5,6-dihydro-2H-pyran-3-yl]sulfanyl}-2-methylphenyl)-3-cyanobenzene-1-sulfonamide] | – | – | 1.4 nM | 1.4 nM | –
Cc1cc(SC2C(=O)CC(CCc3ccccc3)(C(C)C)OC2=O)c(C(C)(C)C)cc1NS(=O)(=O)c1ccc(C(F)(F)F)cc1 (configuration not stated) [N-(5-tert-butyl-4-{[4-hydroxy-2-oxo-6-(2-phenylethyl)-6-(propan-2-yl)-5,6-dihydro-2H-pyran-3-yl]sulfanyl}-2-methylphenyl)-4-(trifluoromethyl)benzene-1-sulfonamide] | – | – | 27 nM | 27 nM | –
Cc1cc(SC2C(=O)C[C@@](CCc3ccccc3)(C(C)C)OC2=O)c(C(C)(C)C)cc1NS(=O)(=O)c1ccc(C#N)cc1 (stereo partly drawn) [N-(5-tert-butyl-4-{[(6S)-4-hydroxy-2-oxo-6-(2-phenylethyl)-6-(propan-2-yl)-5,6-dihydro-2H-pyran-3-yl]sulfanyl}-2-methylphenyl)-4-cyanobenzene-1-sulfonamide] | 9.1 nM | – | – | 0.2 nM | 0.2 nM
Cc1cc(SC2C(=O)C[C@@](CCc3ccccc3)(C(C)C)OC2=O)c(C(C)(C)C)cc1NS(=O)(=O)c1ccc(C(F)(F)F)cn1 (stereo partly drawn) [N-(5-tert-butyl-4-{[(6S)-4-hydroxy-2-oxo-6-(2-phenylethyl)-6-(propan-2-yl)-5,6-dihydro-2H-pyran-3-yl]sulfanyl}-2-methylphenyl)-5-(trifluoromethyl)pyridine-2-sulfonamide] | – | – | – | 6.4 nM | 0.31 nM
Cc1cc(SC2C(=O)C[C@@](CCc3ccc(O)cc3)(C(C)C)OC2=O)c(C(C)(C)C)cc1NS(=O)(=O)c1ccc(C(F)(F)F)cn1 (stereo partly drawn) [N-(5-tert-butyl-4-{[(6S)-4-hydroxy-6-[2-(4-hydroxyphenyl)ethyl]-2-oxo-6-(propan-2-yl)-5,6-dihydro-2H-pyran-3-yl]sulfanyl}-2-methylphenyl)-5-(trifluoromethyl)pyridine-2-sulfonamide] | – | – | – | 0.39 nM | 0.39 nM
Cc1cc(SC2C(=O)CC(CCc3ccc(O)cc3)(C(C)C)OC2=O)c(C(C)(C)C)cc1NS(=O)(=O)c1ccc(C#N)cc1 (configuration not stated) [N-[5-tert-butyl-4-({4-hydroxy-6-[2-(4-hydroxyphenyl)ethyl]-2-oxo-6-(propan-2-yl)-5,6-dihydro-2H-pyran-3-yl}sulfanyl)-2-methylphenyl]-4-cyanobenzene-1-sulfonamide] | 2.2 nM | 2.2 nM | 0.41 nM | 0.41 nM | –
Cc1cc(SC2C(=O)CC(CCc3ccc(O)cc3)(C(C)C)OC2=O)c(C(C)(C)C)cc1NS(=O)(=O)c1ccccc1 (configuration not stated) [N-[5-tert-butyl-4-({4-hydroxy-6-[2-(4-hydroxyphenyl)ethyl]-2-oxo-6-(propan-2-yl)-5,6-dihydro-2H-pyran-3-yl}sulfanyl)-2-methylphenyl]benzenesulfonamide] | 1.8 nM | 1.8 nM | 0.53 nM | 0.53 nM | –
Cc1cc(SC2C(=O)CC(CCc3ccc(O)cc3)(C3CC3)OC2=O)c(C(C)(C)C)cc1NS(=O)(=O)c1ccccc1 (configuration not stated) [N-[5-tert-butyl-4-({6-cyclopropyl-4-hydroxy-6-[2-(4-hydroxyphenyl)ethyl]-2-oxo-5,6-dihydro-2H-pyran-3-yl}sulfanyl)-2-methylphenyl]benzenesulfonamide] | 3.6 nM | 3.6 nM | – | – | –
